We go through 17 compounds from patent US20090170847A1, “Imidazopyridine Derivatives Inhibiting Protein Kinase Activity, Method for the Preparation Thereof and Pharmaceutical Composition Containing Same” (priority 2006, published 2009).

pIC50: −log10 of the molar value.

What is called pIC50 is −log10 of the IC50, conventionally taken in molar units.

One assay concerns the target human GSK-3β (Homo sapiens, UniProt P49841). The assay can be described thus: GSK-3β enzyme inhibition (32P-ATP, phospho-CREB peptide, filter paper). The following applies: 100 μM ATP, 30° C., 1 hour. It is filed as biochemical. On the procedure: GSK-3β was prepared by a gene recombination method.
First, primers corresponding to 5′-end and 3′-end of polynucleotide encoding human GSK-3β were designed and synthesized from nucleotide sequence of human GSK-3β (GenBank Reg. No. L33801). Then, the primers were amplified by PCR (polymerase chain reaction) in which a human DNA sequence was employed as a template and treated with restriction enzyme BamH1/XhoI. The resulting gene fragments were inserted into the corresponding identical restriction sites of pGex vector (GE Healthcare Life Science) to prepare an expression vector for transformation of E. coli BL21 (DE3) strain (Invitrogen). The transformed E. coli strain was inoculated to LB medium (1% Bacto tryptone, 0.5% yeast extract, 1% sodium chloride) and cultured until the optical density of the bacterial cells was about 0.5 at 600 nm and 37° C. Then, IPTG (isopropyl-β-D-thiogalactoside) was added thereto to a final concentration to 0.5 mM at 18° C. 16 hours after IPTG addition, the cells were subjected to centrifugation at 10,000×g for 10 mins and cell precipitates were collected. The cell precipitates were suspended in a buffer solution (30 mM tris-HCl (pH 7.5), 100 mM NaCl, 5% glycerol, 2 mM DTT) and the cells were smashed in an ice bath using a Sonic Dismembrator (Fisher, USA). The resulting solution was centrifuged at 16,000 rpm for 30 mins.
The supernatant obtained above was introduced to a pre-equilibrated GST column (Pharmacia, USA) and eluted by 5 mM glutachione. The effuent was subjected to SDS-PAGE and GSK-3β protein was collected. GST protein was cutt using thrombin. The GSK-3β protein thus obtained was diluted with a buffer solution (20 mM HEPES (pH 7.5), 5% glycerol, 2 mM DTT) until the concentration of NaCl reached 50 mM. The diluted solution was introduced to Mono S column (Pharmacia, USA) equilibrated with the above buffer solution and eluted with a aqueous NaCl while changing the concentration from 0 to 1 M NaCl, and GSK-3β protein was collected by a electrophoresis. The purified protein was used in the analysis for the activity for enzyme activity.
The enzyme reaction was conducted in a buffer solution (50 mM of tris-HCl (pH 7.5), 10 mM of MgCl2, 1 mM of EGTA, 1 mM of EDTA and 1 mM of DTT). 100 μM of phosho-CREB peptide (NEB, USA), 100 μM of ATP and 1 μCi of ^32P-ATP were added to the buffer solution as substrates. And then 100 nM of recombinant GSK-3β was added thereto and the mixture was reacted at 30° C. for 1 hour. The reaction was terminated by the addition of 5 μl of 5% phosphoric acid solution to 25 μl of the reaction mixture. The resulting solution was subjected to centrifugation at 15,000 for 10 mins and 20 μl of the supernatant thus obtained was dropped on whatman p81 filter paper. The filter paper was washed in 0.5% phosphoric acid solution for 10 mins. After repeating the washing 3 times, the filter paper was dried and its cpm (counter per mins) was assessed.
The test solution prepared above by dissolving a test compound in DMSO was added to the reaction solution in an amount of less than 5% based on the total reaction solution to analyze the capacity for enzyme inhibitory activity.

The target of another assay is T1, Aurora Kinase A (Homo sapiens, UniProt O14965).
T1 construct: purchased Upstate
T1 sequence (O14965 1-403): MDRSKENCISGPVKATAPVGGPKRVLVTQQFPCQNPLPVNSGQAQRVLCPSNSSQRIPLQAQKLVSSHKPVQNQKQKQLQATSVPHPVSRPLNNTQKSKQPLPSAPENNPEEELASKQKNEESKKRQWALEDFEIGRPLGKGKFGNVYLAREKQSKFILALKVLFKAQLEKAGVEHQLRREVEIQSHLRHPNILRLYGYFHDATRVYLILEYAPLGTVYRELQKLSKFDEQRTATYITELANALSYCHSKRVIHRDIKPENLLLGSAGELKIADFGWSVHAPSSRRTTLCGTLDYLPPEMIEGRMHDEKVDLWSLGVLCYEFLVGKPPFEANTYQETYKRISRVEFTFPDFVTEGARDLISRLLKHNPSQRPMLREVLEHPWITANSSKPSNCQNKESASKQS
The assay can be described thus: Aurora kinase A enzyme inhibition (Kemptide, Kinase glo). The format is biochemical. To be noted: 1 μM ATP. Here is the method:
The test solution prepared above by dissolving a test compound in DMSO was added to the reaction solution in an amount of less than 5% based on the total reaction solution to analyze the capacity for enzyme inhibitory activity. The cpm value obtained when the test compounds was present relative to the cpm value in the absence of the test compound was represented by percentage, and IC50 (μM) was determined as the concentration of the test compound required to inhibit the enzyme activity by 50% relatively to the control solution.
A test solution was prepared by dissolving one of the compounds of the Examples in DMSO at a concentration of 12.5 mM. Enzyme reaction was conducted in a buffer solution containing 20 mM of HEPES (pH 7.5), 5 mM MgCl2, 0.5 mM ethylene glycol bis(b-aminoethylether) tetraacetic acid (EGTA), 200 mM of KCl, 1 mM of DTT and 0.05% triton X-100. 100 μM of Kemptide peptide (Upstate) and 1 μM of ATP were added to the buffer solution as substrates. Recombinant aurora kinase (Upstate) was added the resulting mixture at a concentration of 10 nM and reaction was carried out at 30° C. for 1 hour. 25 μl of the resulting solution was mixed with 25 μl of Kinase glo (promega), thereby inducing the second reaction by luciferase. The amount of remained ATP was measured by fusion a-FP (Packard, USA). Inhibitory capacities of the test compounds for the enzyme activity were assessed according to the same method as in GSK-3β analysis, and IC50 value was calculated.
(Kinase-Glo measures the ATP left after a reaction by luminescence.)

Sequence of human GSK-3β (P49841 whole entry, the tested form may be a part): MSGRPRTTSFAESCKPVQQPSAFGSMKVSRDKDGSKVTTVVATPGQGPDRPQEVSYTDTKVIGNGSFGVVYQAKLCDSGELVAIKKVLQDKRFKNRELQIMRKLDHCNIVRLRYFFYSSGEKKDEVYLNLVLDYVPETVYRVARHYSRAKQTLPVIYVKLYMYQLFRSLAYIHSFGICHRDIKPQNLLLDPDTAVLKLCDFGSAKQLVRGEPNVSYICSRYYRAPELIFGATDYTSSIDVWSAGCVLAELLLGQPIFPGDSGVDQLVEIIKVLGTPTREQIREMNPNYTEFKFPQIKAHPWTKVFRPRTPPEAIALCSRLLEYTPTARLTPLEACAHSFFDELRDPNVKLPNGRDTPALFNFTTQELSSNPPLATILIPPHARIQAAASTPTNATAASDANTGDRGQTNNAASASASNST

For the compound `CC(=O)Nc1ccc(CCNC(=O)c2ccnc3[nH]c(-c4ccccc4)nc23)cc1` [Example 1, 2-phenyl-3H-imidazo[4,5-b]-pyridine-7-carboxylic acid [2-(4-acetylamino-phenyl)-ethyl]-amide], the pIC50 at human GSK-3β is 7.70. Regarding `CC(=O)Nc1ccc(CCNC(=O)c2ccnc3[nH]c(-c4ccc(Cl)cc4)nc23)cc1` [Example 44, 2-(4-chloro-phenyl)-3H-imidazo[4,5-b]pyridine-7-carboxylic acid[2-(4-acetylamino-phenyl)-ethyl]-amide], the pIC50 at human GSK-3β is 7.42. In the case of `CCSc1ccncc1NC(=O)c1ccnc2[nH]c(-c3ccc(Cl)cc3)nc12` [Example 61, 2-(4-chloro-phenyl)-3H-imidazo[4,5-b]pyridine-7-carboxylic acid(4-ethylsulfanyl-pyridin-3-yl)-amide], on human GSK-3β, the pIC50 was 8.52. Same read-out and setting: under `O=C(NCCCc1ccncc1)c1ccnc2[nH]c(-c3cccs3)nc12` [Example 109, 2-thiophen-2-yl-3H-imidazo[4,5-b]pyridine-7-carboxylic acid(3-pyridin-4-yl-propyl)-amide] stands 7.28. The compound `O=C(NC1C2CC3CC(C2)CC1C3)c1ccnc2[nH]c(-c3ccc(F)cc3)nc12` (centres unmarked) [Example 264, 2-(4-fluoro-phenyl)-3H-imidazo[4,5-b]pyridine-7-carboxylic acid adamantan-2-ylamide] showed a pIC50 at Aurora Kinase A of 7.15. For `CN(C)CCOc1ccncc1NC(=O)c1ccnc2[nH]c(-c3ccc(F)cc3)nc12` [Example 313, 2-(4-fluoro-phenyl)-3H-imidazo[4,5-b]pyridine-7-carboxylic acid[4-(2-dimethylamino-ethoxy)-pyridin-3-yl]-amide], the pIC50 against Aurora Kinase A is 5.96. Regarding `CCOc1cc(C)ncc1NC(=O)c1ccnc2[nH]c(-c3ccc(F)cc3)nc12` [Example 325, 2-(4-fluoro-phenyl)-3H-imidazo[4,5-b]pyridine-7-carboxylic acid(4-ethoxy-6-methyl-pyridin-3-yl)-amide], the pIC50 at human GSK-3β is 8.70.

On to `CN1CCN(c2ccc(-c3nc4c(C(=O)Nc5cccnc5)ccnc4[nH]3)cc2)CC1` [Example 327, 2-[4-(4-methyl-piperazin-1-yl)-phenyl]-3H-imidazo[4,5-b]pyridine-7-carboxylic acid pyridin-3-ylamide], for which, on human GSK-3β, the pIC50 was 7.30. Consider `Cc1ccncc1NC(=O)c1ccnc2[nH]c(-c3ccc(N4CCCC4)cc3)nc12` [Example 332, 2-(4-pyrrolidin-1-yl-phenyl)-3H-imidazo[4,5-b]pyridine-7-carboxylic acid(4-methyl-pyridin-3-yl)-amide], for which, on human GSK-3β, the pIC50 was 7.92.

For `CC1(C)C2CC[C@@]1(C)[C@@H](NC(=O)c1ccnc3[nH]c(-c4ccc(NCCN5CCOCC5)cc4)nc13)C2` [Example 368, 2-[4-(2-morpholin-4-yl-ethylamino)-phenyl]-3H-imidazo[4,5-b]pyridine-7-carboxylic acid(1,7,7-trimethyl-bicyclo[2.2.1]heptin-2-yl)-amide], the pIC50 on Aurora Kinase A is 7.40. `CN1CCN(c2ccc(-c3nc4c(C(=O)NC5CC6CCC5C6)ccnc4[nH]3)cc2)CC1` (centres unmarked) [Example 371, 2-[4-(4-methyl-piperazin-1-yl)-phenyl]-3H-imidazo[4,5-b]pyridine-7-carboxylic acid bicyclo[2.2.1]heptin-2-ylamide]: the pIC50 against Aurora Kinase A was 6.95.

Compound `CCC(C)(C)NC(=O)c1ccnc2[nH]c(-c3ccc(NCCN(C)C)cc3)nc12` [Example 381, 2-[4-(2-dimethylamino-ethylamino)-phenyl]-3H-imidazo[4,5-b]pyridine-7-carboxylic acid(1,1-dimethyl-propyl)-amide] gave a pIC50 against Aurora Kinase A of 7.48.

On to `CCOc1ccncc1NC(=O)c1ccnc2[nH]c(-c3ccc(N4CCCC4)cc3)nc12` [Example 404, 2-(4-pyrrolidin-1-yl-phenyl)-3H-imidazo[4,5-b]pyridine-7-carboxylic acid(4-ethoxy-pyridin-3-yl)-amide], for which the negative logarithm of the IC50 (pIC50) at human GSK-3β is 8.52. Turning to `CCN(CC)C1CCN(c2ccc(-c3nc4c(C(=O)Nc5ccc(C)nc5)ccnc4[nH]3)cc2)C1` (centres unmarked) [Example 409, 2-[4-(3-diethylamino-pyrrolidin-1-yl)-phenyl]-3H-imidazo[4,5-b]pyridine-7-carboxylic acid(6-methyl-pyridin-3-yl)-amide], the pIC50 against Aurora Kinase A is 6.60. Turning to `CCSc1ccncc1NC(=O)c1ccnc2[nH]c(-c3ccc(N4CCN(C)CC4)cc3)nc12` [Example 418, 2-[4-(4-methyl-piperazin-1-yl)-phenyl]-3H-imidazo[4,5-b]pyridine-7-carboxylic acid(4-ethylsulfanyl-pyridin-3-yl)-amide], the pIC50 on Aurora Kinase A is 6.70. `CCOc1cc(C)ncc1NC(=O)c1ccnc2[nH]c(-c3ccc(N4CCN(C)CC4)cc3)nc12` [Example 423, 2-[4-(4-methyl-piperazin-1-yl)-phenyl]-3H-imidazo[4,5-b]pyridine-7-carboxylic acid(4-ethoxy-6-methyl-pyridin-3-yl)-amide] showed a pIC50 against Aurora Kinase A of 6.98. Regarding `CCOc1ccncc1NC(=O)c1ccnc2[nH]c(-c3ccc(OC)cc3)nc12` [Example 425, 2-(4-methoxy-phenyl)-3H-imidazo[4,5-b]pyridine-7-carboxylic acid(4-ethoxy-pyridin-3-yl)-amide], the pIC50 against Aurora Kinase A was less than 5.22.
